In the supplement of paper PMC11061612:

What was measured:
Assay in all cases: Bliss excess, mean over the matrix (fraction); higher = more synergy
[1] = tested on: SCC-15 (Oral Cavity Carcinoma)
In short: (§1)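 Cell lines in DMEM/F12 or RPMI with 10% FBS were plated in 1536-well plates, held 24 hours at 37°C, 5% CO2, then given two-drug dose matrices for 72 hours (DMSO typically 0.2%). Viability was read by CellTiter-Glo 2.0 luminescence and scaled as inhibition from 0 (vehicle wells) to 1 (blank wells). Combination Emax is the second-highest inhibition in the matrix; Bliss excess is observed combination effect minus expected EA + EB − EA·EB, EA and EB being single-agent effects.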

[2] = tested on: EFM-19 (Breast Carcinoma)
In short: as §1

[3] = tested on: NCI-H1915 (Non-Small Cell Lung Carcinoma)
In short: as §1

NB69 (Neuroblastoma) = tested on: NB69 (Neuroblastoma)
In short: as §1

[4] = tested on: RF-48 (B-Cell Non-Hodgkin's Lymphoma)
In short: as §1

[5] = tested on: PANC-04-03 (Pancreatic Carcinoma)
In short: as §1

[6] = tested on: TE-1 (Esophageal Squamous Cell Carcinoma)
In short: as §1

[7] = tested on: KARPAS-299 (T-Cell Non-Hodgkin's Lymphoma)
In short: as §1

UACC-62 (Melanoma) = tested on: UACC-62 (Melanoma)
In short: as §1

D-263MG (Glioblastoma) = tested on: D-263MG (Glioblastoma)
In short: as §1

[8] = tested on: MLMA (Other Blood Carcinomas)
In short: as §1

[9] = tested on: EoL-1-cell (Acute Myeloid Leukemia)
In short: as §1

[10] = tested on: AMO-1 (Plasma Cell Myeloma)
In short: as §1

[11] = tested on: Caov-4 (Ovarian Carcinoma)
In short: as §1

[12] = tested on: HOP-62 (Lung Adenocarcinoma)
In short: as §1

[13] = tested on: BT-549 (Breast Carcinoma)
In short: as §1

[14] = tested on: MIA-PaCa-2 (Pancreatic Carcinoma)
In short: as §1

TK10 (Kidney Carcinoma) = tested on: TK10 (Kidney Carcinoma)
In short: as §1

[15] = tested on: NCI-H727 (Other Solid Carcinomas)
In short: as §1

[16] = tested on: SW13 (Other Solid Carcinomas)
In short: as §1

SMILES	Bliss excess [1]	Bliss excess [2]	Bliss excess [3]	Bliss excess (NB69 (Neuroblastoma))	Bliss excess [4]	Bliss excess [5]	Bliss excess [6]	Bliss excess [7]	Bliss excess (UACC-62 (Melanoma))	Bliss excess (D-263MG (Glioblastoma))	Bliss excess [8]	Bliss excess [9]	Bliss excess [10]	Bliss excess [11]	Bliss excess [12]	Bliss excess [13]	Bliss excess [14]	Bliss excess (TK10 (Kidney Carcinoma))	Bliss excess [15]	Bliss excess [16]
NC1(C(=O)N[C@@H](CCO)c2ccc(Cl)cc2)CCN(c2ncnc3[nH]ccc23)CC1 [Capivasertib] + CCN(CCO)CCCOc1ccc2c(Nc3cc(CC(=O)Nc4cccc(F)c4)[nH]n3)ncnc2c1 [AZD2811] (first compound max 10 µM, 7x7, partner max 1 µM)	0.0105	-0.0084	-0.0294	-0.0339	-0.0019	-0.0142	-0.0347	0.029	-0.016	0.0163	-0.0388	-0.0177	0.0783	0.026	0.0196	-0.0197	0.0031	-0.0434	-0.0058	-0.0397
NC1(C(=O)N[C@@H](CCO)c2ccc(Cl)cc2)CCN(c2ncnc3[nH]ccc23)CC1 [Capivasertib] + COc1nnc2ccc(N3CCC(c4ccc(OCCN5CCN(C)C(=O)[C@H]5C)cc4)CC3)nn12 [AZD5153] (first compound max 10 µM, 7x7, partner max 1 µM)	0.028	0.0634	0.0289	-0.0299	-0.0275	-0.0242	-0.0169	-0.0453	-0.0551	0.0459	-0.0177	-0.0442	-0.0336	-0.0146	-0.0633	0.0602	-0.0594	-0.0154	0.0278	-0.0086
NC1(C(=O)N[C@@H](CCO)c2ccc(Cl)cc2)CCN(c2ncnc3[nH]ccc23)CC1 [Capivasertib] + C[C@@H]1COCCN1C2=NC(=NC(=C2)C3(CC3)[S@](=N)(=O)C)C4=C5C=CNC5=NC=C4 [AZD6738] (first compound max 10 µM, 7x7, partner max 10 µM)	-0.027	-0.0072	-0.081	-0.0728	-0.0888	-0.0322	-0.0831	-0.0163	0.0231	-0.0685	-0.0719	0.0272	-0.021	-0.0249	-0.0695	-0.0724	-0.04	-0.0604	-0.0734	-0.049
NC1(C(=O)N[C@@H](CCO)c2ccc(Cl)cc2)CCN(c2ncnc3[nH]ccc23)CC1 [Capivasertib] + Cn1cnc2c(F)c(Nc3ccc(Br)cc3Cl)c(C(=O)NOCCO)cc21 [Selumetinib] (first compound max 10 µM, 7x7, partner max 10 µM)	-0.0334	-0.034	0.0366	0.0278	-0.0343	0.0247	0.0059	0.117	0.0562	0.0028	0.0032	0.077	0.0678	-0.0293	-0.0367	0.01	0.0259	0.0043	-0.0113	0.102
COc1cccc2c1C(=O)c1c(O)c3c(c(O)c1C2=O)C[C@@](O)(C(=O)CO)C[C@@H]3O[C@H]1C[C@H](N)[C@H](O)[C@H](C)O1 [Doxorubicin] + Cc1cc2ncnn2cc1Nc1ncc2c(n1)n(C1CCOCC1)c(=O)n2C [AZD7648] (first compound max 1 µM, 7x7, partner max 10 µM)	0.0028	0.0055	0.0154	0.0516	0.021	-0.0394	-0.022	0.1	0.0306	0.032	-0.0214	0.155	0.0818	0.056	0.0399	0.0233	0.0167	0.0138	-0.0417	0.0466
CS(=O)(=O)CCNCc1ccc(-c2ccc3ncnc(Nc4ccc(OCc5cccc(F)c5)c(Cl)c4)c3c2)o1 [Lapatinib] + C[C@@H](Oc1cc(-c2cnn(C3CCNCC3)c2)cnc1N)c1c(Cl)ccc(F)c1Cl [Crizotinib] (first compound max 10 µM, 7x7, partner max 10 µM)	-0.0015	-0.0109	-0.0169	-0.0592	-0.0441	-0.0586	0.0266	0.0532	-0.0153	-0.0621	-0.0721	-0.0547	-0.0458	-0.0451	-0.0466	-0.0916	-0.0517	-0.0655	-0.0097	-0.0291
CC(=O)c1c(C)c2cnc(Nc3ccc(N4CCNCC4)cn3)nc2n(C2CCCC2)c1=O [Palbociclib] + CC1(C)CCC(CN2CCN(c3ccc(C(=O)NS(=O)(=O)c4ccc(NCC5CCOCC5)c([N+](=O)[O-])c4)c(Oc4cnc5[nH]ccc5c4)c3)CC2)=C(c2ccc(Cl)cc2)C1 [Venetoclax] (first compound max 10 µM, 7x7, partner max 1 µM)	-0.0589	-0.0475	0.0174	0.0084	-0.112	-0.0528	-0.0385	-0.0496	-0.0678	-0.0043	-0.15	0.0515	-0.0284	-0.057	-0.0132	-0.034	-0.0392	-0.0312	0.0029	-0.0444
CC(=O)c1c(C)c2cnc(Nc3ccc(N4CCNCC4)cn3)nc2n(C2CCCC2)c1=O [Palbociclib] + Cc1c2c(nn1C)CSCc1cc(n(C)n1)CSc1cc(c3ccccc3c1)OCCCc1c(C(=O)O)n(C)c3c-2c(Cl)ccc13 [AZD5991] (first compound max 10 µM, 7x7, partner max 1 µM)	-0.044	-0.0005	-0.0526	0.0058	-0.0722	-0.0464	-0.0182	0.0262	-0.0612	-0.0135	-0.0442	0.0132	-0.0375	-0.0133	-0.0573	0.0106	0.0265	-0.0228	0.0353	0.0252
CC(=O)c1c(C)c2cnc(Nc3ccc(N4CCNCC4)cn3)nc2n(C2CCCC2)c1=O [Palbociclib] + Cn1cnc2c(F)c(Nc3ccc(Br)cc3Cl)c(C(=O)NOCCO)cc21 [Selumetinib] (first compound max 10 µM, 7x7, partner max 10 µM)	-0.0721	-0.0313	-0.034	0.0829	-0.0489	-0.0213	0.0048	0.0661	-0.0359	-0.0077	0.0398	0.112	0.0844	-0.0247	-0.0079	-0.0254	0.0413	0.0072	-0.0139	0.044
COc1cccc(OCCCN)c1-c1cc(Nc2cnc(C#N)cn2)n[nH]1 [Prexasertib] + C=CCn1c(=O)c2cnc(Nc3ccc(N4CCN(C)CC4)cc3)nc2n1-c1cccc(C(C)(C)O)n1 [AZD1775] (first compound max 1 µM, partner max 1 µM)	0.0227	0.025	0.0494	0.0657	0.0178	0.0208	0.0112	-0.0076	-0.0118	0.0378	0.0034	0.0565	0.047	0.007	0.0474	0.0433	0.143	0.0018	0.0061	0.0659
COc1cccc(OCCCN)c1-c1cc(Nc2cnc(C#N)cn2)n[nH]1 [Prexasertib] + CCc1c2c(nc3ccc(O)cc13)-c1cc3c(c(=O)n1C2)COC(=O)[C@]3(O)CC [SN-38] (first compound max 1 µM, 7x7, partner max 0.3 µM)	-0.0236	0.155	0.0086	-0.0556	-0.0572	-0.067	-0.0025	-0.0223	-0.042	0.0688	-0.0732	-0.0317	-0.04	-0.0332	-0.0279	-0.0474	0.0334	-0.0257	-0.0425	0.0459
COc1cccc(OCCCN)c1-c1cc(Nc2cnc(C#N)cn2)n[nH]1 [Prexasertib] + CN(C)CCCOc1ccc(-c2ccc3ncc4c(c3c2)n(C2CCOCC2)c(=O)n4C)cn1 [AZD0156] (first compound max 1 µM, 7x7, partner max 1 µM)	-0.0333	-0.0701	-0.0086	0.0064	0.0213	-0.0328	-0.0356	0.0074	0.0155	0.0273	-0.0349	-0.0145	-0.0341	0.0056	-0.0042	-0.0094	-0.0391	-0.0239	-0.0646	0.0256
COc1cccc(OCCCN)c1-c1cc(Nc2cnc(C#N)cn2)n[nH]1 [Prexasertib] + C[C@@H]1COCCN1C2=NC(=NC(=C2)C3(CC3)[S@](=N)(=O)C)C4=C5C=CNC5=NC=C4 [AZD6738] (first compound max 1 µM, 7x7, partner max 10 µM)	-0.0316	-0.0296	-0.0396	-0.0228	-0.0175	0.0017	-0.0617	-0.0184	-0.0174	-0.019	-0.0514	-0.0109	-0.0361	-0.0123	0.0375	0.0054	-0.105	0.0238	-0.0047	0.0627
